Results reported in PubChem BioAssay AID179 (DTP/NCI, 2004).
Calls of active or inactive are those of the source.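 Rule for the calls: active = compounds giving half or more protection of infected cells from virus-caused growth loss, again on retest; inactive = the rest.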

System: CEM cells HIV-1 protection, formazan growth assay
Experiment: NCI AIDS Antiviral Assay
Conditions: for IC50: measured here: growth of uninfected CEM cells
Outline: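 Five concentrations of each compound were applied to infected and uninfected human CEM cells. Protection from HIV-1 was judged from growth measured with a soluble formazan assay.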

SMILES	EC50 [µM]	IC50 [µM]	outcome
CCOC(=O)c1ccc(CS(=O)(=O)c2ccc([N+](=O)[O-])cc2)cc1	> 53.7	> 53.7	–
Cn1ccc2c(C(=O)c3ccccc3)cccc2c1=O	–	–	inactive
CC(C)C(/C=C/c1ccc(Cl)cc1)=N\NC(=O)N/N=C(/C=C/c1ccc(Cl)cc1)C(C)C	> 100	> 100	–
C[C@]12C=CC(=O)C=C1[C@@H](F)C[C@H]1[C@@H]3CC[C@](O)(C(=O)CO)[C@@]3(C)C[C@H](O)[C@@]12F	–	–	inactive
COc1ccccc1C=C1C(=O)NC(=O)NC1=O	> 145	> 145	–
CSc1n[n+](C)cc(N)c1N	> 200	28.8	–
C=CCOC1OC(CO[Si](C)(C)C(C)(C)C)C(OCc2ccccc2)C(OCc2ccccc2)C1OCc1ccccc1 (stereo not drawn)	–	–	inactive
C=C1C(=O)OC2CC(C)C(C(CC(C)=O)OC(C)=O)=CCC12 (stereo not drawn)	> 324	1.58	–
Cn1c(=O)c2c(nc3n(Cc4ccccc4)c(=O)c(Br)cn23)n(C)c1=O	> 100	38.9	–
CCc1c(C)[nH]c2c1/C(=N/N=C1\CCCc3[nH]c(C)c(CC)c31)CCC2	–	–	inactive
Cc1ccc(S(=O)(=O)OC[C@H]2CC=CC[C@H]2COS(=O)(=O)c2ccc(C)cc2)cc1	> 200	> 200	–
COc1cc(NCCN=C(N)NC#N)c2ncccc2c1	> 126	89.1	–
COC(=O)c1sc2c(=O)c(C(=O)OC)c(C(=O)OC)sc2c(=O)c1C(=O)OC	> 151	12	–
COC(=O)c1cc(OC)c(OC)c(OC)c1-c1cc2c(cc1C=O)OCO2	> 132	120	–
COC(=O)C1=C(O)C(C(=O)OC)[C@]2(O)[C@@H](C(=O)OC)[C@H]1C[C@@H](c1ccccc1)[C@@H]2C(=O)OC (stereo partly drawn)	> 200	18.6	–
COCCCC(NC(=O)C(CC(C)C)NC(=O)OCc1ccc(OC)cc1)C(=O)OC (stereo not drawn)	> 200	33.1	–
O=c1n(-c2ccccc2)c(=O)n2n1Cc1cc3ccccc3cc1-2	> 79.4	> 79.4	–
N=C1/C(=C/c2ccco2)C(=O)N=C2SC=NN12	> 200	> 200	–
Nc1cc(C(=O)O)ccc1SSc1ccc(C(=O)O)cc1N	93.3	> 200	–
N=C1C=C/[N+](=C\C=CCO)C([O-])=N1	–	–	active
NCCCCNC(c1ccccc1)C(O)c1ccccc1 (stereo not drawn)	–	–	inactive
COC(=O)CN=C1NC(=S)N(Cc2ccc(OC)cc2)C12CCCC2	> 200	> 200	–

SMILES	EC50 [µM]	IC50 [µM]	outcome
Nc1ccccc1CN1C(=O)c2ccccc2C1=O	> 200	3.55	–
Cc1cn([C@H]2C[C@@H]3[C@@H](COC(CCl)N3O)O2)c(=O)[nH]c1=O (stereo partly drawn)	> 200	31.6	–
Brc1ccc(C=NC23CC4CC(CC(C4)C2)C3)cc1	> 56.2	> 56.2	–
CCOC(=O)CC1c2ccc(O)cc2OC(=O)C1c1ccc([N+](=O)[O-])cc1 (stereo not drawn)	> 200	31.6	–
O=C(O)c1ccc(CSc2ccccc2)c([N+](=O)[O-])c1	> 631	245	–
Cc1nn(C(=O)CC(=O)Nc2ccc(Cl)cc2)c(C)c1N=Nc1ccccc1C(=O)O	> 42.7	> 42.7	–
Cc1ccc2oc(=O)c(C(=O)Nc3nc(C45CC6CC(CC(C6)C4)C5)cs3)cc2c1	> 100	> 100	–
NC(=O)NC(=O)C(Cc1ccc(Cl)cc1)c1ccccc1 (stereo not drawn)	> 85.1	> 85.1	–
CCOC(=O)c1c(-c2ccc(OC)cc2)ccn1C	> 200	28.8	–
COC(O)C(=O)c1c2c(cc3c1CC1(Cc4cc5c(cc4C1)CCC5)C3)CCC2 (stereo not drawn)	> 200	33.1	–
Cc1[nH]c2[nH]c(=S)nc(NC(N)=S)c2c1Cc1ccccc1	> 100	41.7	–
CC(C)=CCN1CCCn2c(=S)[nH]c3cccc(c32)C1=O	> 200	> 200	–
CCCCCCCCCc1ccc(Oc2ccc3c(c2)-c2nc-3nc3[nH]c(nc4nc(nc5[nH]c(n2)c2ccc(Oc6ccc(CCCCCCCCC)cc6)cc52)-c2cc(Oc5ccc(CCCCCCCCC)cc5)ccc2-4)c2ccc(Oc4ccc(CCCCCCCCC)cc4)cc32)cc1	> 13.5	> 13.5	–
C[C@H](CCC1=NCCN1)[C@H]1CC[C@H]2[C@@H]3[C@H](O)C[C@@H]4C[C@H](O)CC[C@]4(C)[C@H]3CC[C@]12C	> 200	24	–
CCCCc1c2c(nc3c1CCC/C3=C\c1ccccc1)C(=O)CCC2	> 5.75	> 5.75	–
COc1ccc(-c2c(C)c(C(=O)O)nc(-c3ccc4c(O)c(OC)c5c(c4n3)=NC(C)(C)N=5)c2N)c(O)c1OC	> 457	2.4	–
Cc1nc2cccc([N+](=O)[O-])c2c(NCCCN(C)C)c1C	> 200	40.7	–
CCOC(=O)[C@@H]1CCN2CN(c3ccc(OC)cc3)N=C(c3ccccc3)[C@@]12c1ccccc1	> 200	18.2	–
O=C(CCc1ccccc1)On1c(-c2ccccc2)nc2ccccc2c1=S	> 200	3.47	–
Nc1sc(=S)nc2[nH]ncc12	> 200	> 200	–
CC(=O)OCc1ccc2c(c1)C(O)NC(=O)O2 (stereo not drawn)	> 200	105	–
COc1ccccc1N1C(Cl)C(=O)C1c1c[nH]c2ccccc12 (stereo not drawn)	> 151	129	–

SMILES	EC50 [µM]	IC50 [µM]	outcome
CCn1c2c(c3ccccc31)CCSC2(C)CCN(C)C (stereo not drawn)	–	–	inactive
Cc1c(NC(=O)OCc2ccccc2)no[n+]1[O-]	> 550	129	–
COC1/C=C\C=C(/C)C(=O)NC2=CC(=O)C(N)=C(CC(C)CC(OC)C(O)C(C)C=C(C)C1OC(N)=O)C2=O (stereo not drawn)	> 2	0.0661	–
O=C(Cl)c1ccc([As](=O)(O)O)cc1	> 200	> 200	–
CO[C@@H]1C2C3c4ccccc4C(c4ccccc43)C2[C@H](OC)[C@H]2OC(c3ccccc3)O[C@H]21 (stereo partly drawn)	> 67.6	> 67.6	–
O=C1c2ccccc2C2(c3ccc(Cl)cc3)N[C@H]3CCCC[C@@H]3N12 (stereo partly drawn)	> 200	141	–
N#Cc1nc(-c2cccs2)oc1N	> 200	> 200	–
Clc1ccc(-c2nn3c(C45CC6CC(CC(C6)C4)C5)nnc3s2)cc1	> 200	> 200	–
COCn1c(C)c(C)c2c(=O)oc(C)nc21	> 200	> 200	–
CCC(=O)C12OC3OC(C)(C)OC3C1OC(C)(C)O2 (stereo not drawn)	–	–	inactive
CCC1=[N+]([O-])C(C)(C)NC1(C)C	> 200	> 200	–
C/C(CC(=O)Nc1cccc(Cl)c1C)=N\NC(N)=S	> 120	> 120	–
CN(C(=O)C12C3C4C1C1C2C3C41C(N)=O)C(C)(C)C (stereo not drawn)	> 52.5	> 52.5	–
CCOc1ccc(NC(=O)CC2C(=O)Nc3ccccc3S2(=O)=O)cc1 (stereo not drawn)	> 19.5	> 19.5	–
CC1=NN(c2ccccc2)C(=O)C12[C@H](c1ccccc1)C2(C#N)C#N (stereo partly drawn)	> 21.9	3.39	–
CCN(CC)c1ccc(C(=O)c2ccccc2C(=O)O)c(O)c1	–	–	inactive
O=S(=O)(O)c1cc(N=Nc2ccc(O)cc2O)ccc1/C=C/c1ccc(N=Nc2ccc(O)cc2O)cc1S(=O)(=O)O	> 70.8	66.1	–
O=C1C(=O)c2ccccc2C(O)=C1CCCCCCCCC1CCCCC1	> 200	12	–
CCCC(=O)c1ccc(=O)n(C)c1	> 1380	1070	–
CN(C(=O)c1ccc(Cl)cc1)C(=S)N1CCN(c2ccccc2)CC1	> 19.5	> 19.5	–
COc1ccc(/C=C2\N=C(N/N=C\C(O)C(O)C(O)C(O)CO)NC2=O)cc1 (stereo not drawn)	> 200	107	–
O=C(CN1CCOCC1)NC1=Nc2ncccc2C(=O)NN1	> 200	115	–

SMILES	EC50 [µM]	IC50 [µM]	outcome
COC1/C=C/OC2(C)Oc3c(C)c(O)c4c(O)c(c(/C=N/NC5C6CC7CC(C6)CC5C7)c(O)c4c3C2=O)NC(=O)/C(C)=C/C=C/C(C)C(O)C(C)C(O)C(C)C(OC(C)=O)C1C (stereo not drawn)	> 200	9.12	–
CCn1c(=O)nc2n(-c3ccc(SC)cc3)c3ccccc3nc-2c1=O	–	–	inactive
O=C1OCc2c1cc1cc3c(cc1c2-c1ccc2c(c1)OCO2)OCO3	–	–	inactive
COc1ccc2c(c1)N(S(=O)(=O)c1ccc(C)cc1)CC1=C2CCP1(C)=O (stereo not drawn)	–	–	inactive
O=C(O)[C@@H]1CSC(c2ccc(C(F)(F)F)cc2)N1 (stereo partly drawn)	> 200	> 200	–
Clc1ccc2cccc3c2c1C1OC3c2ccccc21 (stereo not drawn)	–	–	inactive
CCOC1(OCC)C2C=CC1C(COS(=O)(=O)c1ccc(C)cc1)C2COS(=O)(=O)c1ccc(C)cc1 (stereo not drawn)	> 200	14.1	–
COc1ccc(C2C3=C(COC3=O)OC(C)(C)Oc3cc4c(cc32)OCO4)cc1OC (stereo not drawn)	> 200	12.3	–
S=C1NCCO1	> 200	105	–
CN(NC(=O)/C(=C/c1ccc2c(c1)OCO2)NC(=O)c1ccccc1)c1ccnc2cc(Cl)ccc12	> 200	10.5	–
N#Cc1c(C(N)=O)ncn1Cc1ccccc1	–	–	inactive
CC(=O)OCC1=C(C(=O)O)N2C(=O)C(NC(=O)CSc3ccncc3)C2SC1 (stereo not drawn)	61.7	631	–
CC(=O)Nc1ccc(/C=C2\SC(=S)N(/C=C3/C(=O)N(c4ccccc4)N=C3C)C2=O)cc1	> 200	72.4	–
O=[N+]([O-])c1ccc(C(Cl)C(Cl)c2ccc(C(Cl)C(Cl)c3ccc([N+](=O)[O-])cc3[N+](=O)[O-])cc2)c([N+](=O)[O-])c1 (stereo not drawn)	> 12	5.13	–
Cc1ccccc1N=O	> 200	9.77	–
C=C1C(=O)O[C@H]2CC(C)C3C(O)CC(O)[C@@]3(C)C[C@H]12 (stereo partly drawn)	> 933	6.03	–
CC12CCC(C(Nc3ccccn3)C1=O)C2(C)C (stereo not drawn)	–	–	inactive
CN(C(=O)C12C3C4C1C1C2C3C41C(O)C(C)(C)C)C(C)(C)C (stereo not drawn)	> 117	> 117	–
COc1cc2c(cc1O)[C@@]1(Cc3ccc(OC)c(OC)c3)CCC(=O)N1CC2	–	–	inactive
CCOC(=O)/C(=C\c1cccc(C#N)c1)C(C)=O	> 389	28.2	–
O=C1CC(O)c2c(Cl)sc(Cl)c21 (stereo not drawn)	> 200	5.25	–
